# Measurements: patent publication US20080145424A1, “Sustained release L-arginine formulations and methods of manufacture and use” (Enos Phramaceuticals, Inc., priority 2002, published 2008)
# Tested on: total infarct volume
# Assay: Dose optimization of combination of simvastatin and L-arginine, infarct volume in mice
# Assay type: in vivo
# Settings: mice injected with varying levels of simvastatin and L-arginine; predicted by statistical analysis
structure (smiles),measurement,value
CCC(C)(C)C(=O)O[C@H]1C[C@@H](C)C=C2C=C[C@H](C)[C@H](CC[C@@H]3C[C@@H](O)CC(=O)O3)[C@H]21 [simvastatin],optimal range of the combination,1.2 to 1.4 mg/kg
